According to US8680282B2, “Cyclic inhibitors of carnitine palmitoyltransferase and treating cancer” (University Health Network, priority 2007, dated 2014):

Columns and labels:
Assay in all cases: Cancer cell growth inhibition, SRB assay
PC-3 = type: cell-based, human; conditions: SRB at Day 6; for GI50: Homo sapiens, 144 h, PC-3 (Prostate), triplicate; for Percentage of Growth Inhibition: PC-3, at 10 μM, NE = no activity at 10 micromolar
Method: (§1) Human cancer cells (MCF-7, H358, H460, HCT116 p53^+/+, HCT116 p53^−/−, A172, PC-3, DU-145 and SW626) were maintained in DMEM medium containing 10% Fetal Bovine Serum (FBS) (Invitrogen, Burlington, ON, Canada) and normal cells HMEC, 184A1, NHBE and PrEC were cultured in MEGM, MEGM plus transferring and cholera toxin, BEGM and PrEGM supplemented with various growth factors (Cambrex, Charles city, Iowa, USA), respectively.
(§2) Compounds of Examples S1 to S30, and 4-(carboxymethyl)-4-(6-(3-hexyloxy)phenoxy)hexanoamido)-1,1-dimethylpiperidinium 2,2,2-trifluoroactate (“Compound A”) were tested in this example. Each of the tested compounds was dissolved in DMSO and further diluted in cell culture medium for the experiments performed. Cells were seeded into 96-well plates with 1,500-5,000 cells/well according to cell growth rate. After 24 h, DMEM medium containing 10% FBS were changed to DMEM containing 3% FBS for cancer cells. The compound was added into the cell culture at the indicated concentrations, and the final concentration of DMSO was adjusted to a final concentration of 0.1%. Cell viability was assessed by Sulforhodamine B (SRB) assay at Day 6.
(§3) Sulforhodamine B (SRB) (Sigma, Oakville, ON, Canada) is a water-soluble dye that binds to the basic amino acids of the cellular proteins. Thus, colorimetric measurement of the bound dye provides an estimate of the total protein mass that is related to the cell number. The cells were fixed in situ by gently aspirating off the culture media and adding 50 ul of cold 10% Tri-chloroacetic Acid (TCA) per well and incubated at 4° C. for 30-60 min. The plates were washed five times with water and allowed to air dry for 5 min. 50 ul of 0.4% (w/v) SRB dissolved in 1% (v/v) acetic acid were added into each well, plates were then incubated at RT for 30 min for staining, washed four times with 1% acetic acid to remove any unbound dye and then allowed to air dry for 5 min. Stain was solubilized with 100 ul of 10 mM Tris pH 10.5 per well. Absorbance was read at 570 nm on a spectrophotometer. GI50 (compound concentration required for 50% of growth inhibition) was calculated using GraphPad Prism 4.0 software (GraphPad Software, Inc., San Diego, Calif., USA). Growth inhibition (%) was determined as percentage of cells remaining compared to the DMSO-treated cells as control.

H460 = type: cell-based, human; conditions: SRB at Day 6; for GI50: Homo sapiens, NCI-H460, 144 h, H460 (Lung), triplicate
Method: as §1, §2, §3

A172 = type: cell-based, human; conditions: SRB at Day 6; for GI50: Homo sapiens, A 172, 144 h, A172 (Brain), triplicate; for Percentage of Growth Inhibition: A172, at 10 μM, NE = no activity at 10 micromolar
Method: as §1, §2, §3

Hs578T = type: cell-based; conditions: Homo sapiens, Hs-578T, 144 h; Hs578T (Breast); SRB at Day 6; triplicate
TOV-21G = type: cell-based; conditions: Homo sapiens, TOV21G, 144 h; SRB at Day 6; triplicate
Caov-3 = type: cell-based; conditions: Homo sapiens, 144 h; Caov-3 (Ovarian); SRB at Day 6; triplicate
MDA-231 = type: cell-based, human; conditions: SRB at Day 6; for GI50: Homo sapiens, MDA-MB-231, 144 h, MDA-231 (Breast), triplicate
HCT-8 = type: cell-based, human; conditions: at 10 μM, SRB at Day 6

| Compound | GI50 (PC-3) [µM] | GI50 (A172) [µM] | GI50 (Hs578T) [µM] | GI50 (Caov-3) [µM] | further results |
| --- | --- | --- | --- | --- | --- |
| CCCCCCCCc1ccc(NC(=O)NC2(CC(=O)O)CC[N+](C)(C)CC2)cc1 [Example S2, 4-(Carboxymethyl)-1,1-dimethyl-4-(3-(4-octylphenyl)ureido)piperidinium 2,2,2-trifluoroacetate] | 8.2 | 1.8 | 50 | – | GI50 (H460): 1.8 µM |
| CCCCCc1ccc(S(=O)(=O)NC2(CC(=O)O)CC[N+](C)(C)CC2)cc1 [Example S4, 4-(Carboxymethyl)-1,1-dimethyl-4-(4-pentylphenylsulfonamido)piperidinium 2,2,2-trifluoroacetate] | > 50 | > 50 | – | – | GI50 (TOV-21G): 44 µM |
| C[N+]1(C)CCC(CC(=O)O)(NC(=O)c2ccc(CCc3ccccc3)o2)CC1 [Example S5, 4-(Carboxymethyl)-1,1-dimethyl-4-(5-phenethylfuran-2-carboxamido)-piperidinium 2,2,2-trifluoroacetate] | – | – | – | – | Percentage of Growth Inhibition (A172): 0.01342% |
| C[N+]1(C)CCC(CC(=O)O)(NC(=O)c2ccc(C#Cc3ccccc3)o2)CC1 [Example S6, 4-(Carboxymethyl)-1,1-dimethyl-4-(5-(phenylethynyl)furan-2-carboxamido)-piperidinium 2,2,2-trifluoroacetate] | – | – | – | – | Percentage of Growth Inhibition (PC-3): 0.03591%; Percentage of Growth Inhibition (A172): 0.05672% |
| CCCCCCCCc1ccc(NS(=O)(=O)NC2(CC(=O)O)CCN(C)CC2)cc1 [Example S7, 4-(carboxymethyl)-1-methyl-4-(N-(4-octylphenyl)sulfamoylamino)-piperidinium 2,2,2-trifluoroacetate] | 6 | 15 | > 50 | 22 | – |
| CCCCCCCCc1ccc(NS(=O)(=O)NC2(CC(=O)O)CC[N+](C)(C)CC2)cc1 [Example S8, 4-(carboxymethyl)-1,1-dimethyl-4-(N-(4-octylphenyl)sulfamoylamino)piperidinium 2,2,2-trifluoroacetate] | 1.7 | 2.2 | 26 | 2 | – |
| CCCCCCCCc1ccc(NC(=O)NC2(CC(=O)O)CCC[NH+](C)C2)cc1 (centres unmarked) [Example S9, 3-(Carboxymethyl)-1-methyl-3-(3-(4-octylphenyl)ureido)piperidinium 2,2,2-trifluoroacetate] | – | – | – | – | Percentage of Growth Inhibition (PC-3): 0.2585% |
| CCCCCCCCc1ccc(NC(=O)NC2(CC(=O)O)CCC[N+](C)(C)C2)cc1 (centres unmarked) [Example S10, 3-(carboxymethyl)-1,1-dimethyl-3-(3-(4-octylphenyl)ureido)-piperidinium 2,2,2-trifluoroacetate] | 0.9 | 4.6 | 39 | – | – |
| CCCCCCCCc1ccc(NS(=O)(=O)NC2(CC(=O)O)CCCN(C)C2)cc1 (centres unmarked) [Example S15, 3-(carboxymethyl)-1-methyl-3-(N-(4-octylphenyl)sulfamoylamino)-piperidinium 2,2,2-trifluoroacetate] | 2.8 | 2.7 | 25 | 4 | – |
| CCCCCCCCc1ccc(NS(=O)(=O)NC2(CC(=O)O)CCC[N+](C)(C)C2)cc1 (centres unmarked) [Example S16, 3-(carboxymethyl)-1,1-dimethyl-3-(N-(4-octylphenyl)sulfamoylamino)-piperidinium 2,2,2-trifluoroacetate] | 2.1 | 1.1 | 17 | 2.5 | GI50 (MDA-231): 0.5 µM |
| CCCCCCCCc1ccc(NC(=O)NC2(CC(=O)O)CC[N+](C)(C)C2)cc1 (centres unmarked) [Example S18, 3-(carboxymethyl)-1,1-dimethyl-3-(3-(4-octylphenyl)ureido)-pyrrolidinium 2,2,2-trifluoroacetate] | 6.6 | 1.9 | 26 | – | GI50 (H460): 2.2 µM |
| CCCCCc1ccc(S(=O)(=O)NC2(CC(=O)O)CC[N+](C)(C)C2)cc1 (centres unmarked) [Example S20, 3-(carboxymethyl)-1,1-dimethyl-3-(4-pentylphenylsulfonamido)-pyrrolidinium 2,2,2-trifluoroacetate] | – | – | – | – | Percentage of Growth Inhibition (A172): 0.1176% |
| CCCCCCCCCCc1ccc(C(=O)NC2(CC(=O)O)CCN(C)C2)cc1 (centres unmarked) [Example S21, 3-(carboxymethyl)-3-(4-decylbenzamido)-1-methylpyrrolidinium 2,2,2-trifluoroacetate] | – | – | – | – | Percentage of Growth Inhibition (PC-3): 0.1562%; Percentage of Growth Inhibition (A172): 0.1417% |
| CCCCCCCCCCc1ccc(C(=O)NC2(CC(=O)O)CC[N+](C)(C)C2)cc1 (centres unmarked) [Example S22, 3-(Carboxymethyl)-3-(4-decylbenzamido)-1,1-dimethylpyrrolidinium 2,2,2-trifluoroacetate] | – | – | – | – | Percentage of Growth Inhibition (PC-3): 0.4436%; Percentage of Growth Inhibition (A172): 0.1249% |
| CCCCCCCCc1ccc(NC(=O)NC2(CC(=O)O)CNC2)cc1 [Example S23, 3-(carboxymethyl)-3-(3-(4-octylphenyl)ureido)azetidinium 2,2,2-trifluoroacetate] | 24 | 7.2 | 45 | 17 | – |
| CCCCCCCCc1ccc(NC(=O)NC2(CC(=O)O)C[N+](C)(C)C2)cc1 [Example S24, 3-(Carboxymethyl)-1,1-dimethyl-3-(3-(4-octylphenyl)ureido)azetidinium 2,2,2-trifluoroacetate] | 21 | 41 | 46 | 45 | – |
| CCCCCc1ccc(S(=O)(=O)NC2(CC(=O)O)CN(C)C2)cc1 [Example S27, 3-(carboxymethyl)-1-methyl-3-(4-pentylphenylsulfonamido)azetidinium 2,2,2-trifluoroacetate] | – | – | – | – | Percentage of Growth Inhibition (PC-3): 0.0865%; Percentage of Growth Inhibition (H460; H460, at 10 μM, NE = no activity at 10 micromolar): 0.00556%; Percentage of Growth Inhibition (HCT-8): 0.09153%; Percentage of Growth Inhibition (MDA-231; MDA-231, at 10 μM, NE = no activity at 10 micromolar): 0.1338% |
| CCCCCc1ccc(S(=O)(=O)NC2(CC(=O)O)C[N+](C)(C)C2)cc1 [Example S29, 3-(carboxymethyl)-1,1-dimethyl-3-(4-pentylphenylsulfonamido)-azetidinium 2,2,2-trifluoroacetate] | > 50 | > 50 | > 50 | – | GI50 (MDA-231): > 50 µM |
| CCCCCCCCc1ccc(N(C)S(=O)(=O)NC2(CC(=O)O)CCC[N+](C)(C)C2)cc1 (centres unmarked) [Example S30, 3-(carboxymethyl)-1,1-dimethyl-3-(N-methyl-N-(4-octylphenyl)-sulfamoylamino)piperidinium 2,2,2-trifluoroacetate] | 0.7 | 0.6 | 3 | – | – |
